{"source": "patent US12698523B2", "about": "“Enhancement of nucleic acid polymerization by aromatic compounds” (priority 2019, dated 2026)", "key": {"[1]": {"molecular_target": "T1, C4760 DNA polymerase (a variant of DPO4, SEQ ID NO:2) (Saccharolobus solfataricus, UniProt Q97W02, A155G/A42V/D156R/D292Y/D294N/E291S/E324K/E325K/E327K/E63R/E79L/G187P/G299W/I153V/I189F/I248T/I295S/K152A/K317Q/K321Q/K56Y/K78D/L293W/M76W/N188Y/P184Q/Q82W/Q83G/R300S/S297Y/S86E/T290K/T301W/V289W/V296Q)", "T1 construct": "made in house", "T1 sequence (Q97W02 other isoform, or with tags, fused parts or gaps with the stated changes)": "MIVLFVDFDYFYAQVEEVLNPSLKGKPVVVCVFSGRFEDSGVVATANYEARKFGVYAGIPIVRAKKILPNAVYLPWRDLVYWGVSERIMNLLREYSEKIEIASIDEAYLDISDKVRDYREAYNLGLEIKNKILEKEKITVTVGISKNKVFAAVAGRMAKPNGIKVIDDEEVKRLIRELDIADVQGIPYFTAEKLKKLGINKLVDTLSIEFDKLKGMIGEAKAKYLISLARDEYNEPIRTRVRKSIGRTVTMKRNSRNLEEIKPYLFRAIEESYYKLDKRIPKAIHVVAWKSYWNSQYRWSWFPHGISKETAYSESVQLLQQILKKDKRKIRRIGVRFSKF", "test": "Primer extension assay with the HIV2 100mer template", "assay_type": "biochemical, Sulfolobus solfataricus", "conditions": "HIV2-derived 100mer template; for polymerization of XNTPs into lengthy Xpandomer copies (PEM activity): 2 Mm compound 16, 0.5, 1, 2, and 3 Mm compound 17, Kod SSB, 30 minutes at 37° C., FIG. 13", "protocol": "PEM activity of compound 12 was tested in primer extension assays using the HIV2 100mer template. Primer extension reactions included the following reagents: 50 Mm TrisCl, 200 Mm NH4Oac, 20% PEG8K, 5% NMS, 0.6 nmol PP-60.20, 0.6 Mm MnCl2, 2.75 μg/μl Eco single-strand binding protein (SSB), 1 M urea, 50 pmol each XNTP, 1.1 pmol template, 1 pmol oligonucleotide primer, 1.2 μg/μl purified recombinant C4760 DNA polymerase (SEQ ID NO:2), and 0.5, 1, or 1.5 Mm PEM. 10 μL primer extension reactions were run for 30 minutes at 23° C. and reaction products were analyzed by gel electrophoresis. […] Lanes 2-4 show primer extension products from reactions with a structurally related additive lacking robust PEM activity.\nPEM activity of compounds 13 and 14 was tested in primer extension assays using the HIV2 100mer template. Primer extension reactions included the following reagents: 50 Mm TrisCl, 200 Mm NH4Oac, 20% PEG8K, 5% NMS, 0.6 nmol PP-60.20, 0.6 Mm MnCl2, 2.75 μg/μl Eco single-strand binding protein (SSB), 1 M urea, 50 pmol each XNTP, 1.1 pmol template, 1 pmol oligonucleotide primer, 1.2 μg/μl purified recombinant C4760 DNA polymerase (a variant of DPO4, see SEQ ID NO:2), and 0.5, 1, 1.52, or 2.5 Mm PEM. 10 μL primer extension reactions were run for 30 minutes at 23° C. and reaction products were analyzed by gel electrophoresis. A representative gel showing primer extension products is presented in FIG. 11 (the position of the full length HIV2 100mer is indicated by the arrow).\nPEM activity of compounds 16, 17, and 18 and combinations thereof were tested in primer extension assays using the HIV2-derived 100mer template. Primer extension reactions included the following reagents: 50 Mm TrisCl, 200 Mm NH4Oac, 20% or 25% PEG8K, 5% NMS, 0.6 nmol PP-60.20, 0.6 Mm MnCl2, 2 μg Kod single-strand binding protein (SSB), 1 M urea, 50 pmol each XNTP, 1 pmol template, 1 pmol oligonucleotide primer, 1.2 μg purified recombinant C4760 DNA polymerase (a variant of DPO4, see SEQ ID NO:2), and 0.5-2 Mm PEM. 10 μL primer extension reactions were run for 30 minutes at 37° C. and reaction products were analyzed by gel electrophoresis. A representative gel showing primer extension products is presented in FIG. 13 (the position of a 100mer product is indicated by the arrow)."}, "[2]": {"molecular_target": "T1, C4760 DNA polymerase (a variant of DPO4, SEQ ID NO:2)", "test": "Primer extension on a 45mer RNA template derived from the HIV2 genome sequence", "assay_type": "biochemical, Sulfolobus solfataricus", "conditions": "2 Mm PEM; 45mer RNA template from HIV2 genome; 30 minutes at 37° C.", "protocol": "To begin to investigate the potential of PEMs to enhance diverse polymerase reactions, the ability of PEMS to enable DNA polymerase to utilize RNA as a template was tested. An initial screen of several compounds set forth in Table I was conducted using a 45mer RNA template derived from the HIV2 genome sequence. Primer extension reactions included the following reagents: 50 Mm TrisCl, 200 Mm NH4Oac, 20% PEG8K, 5% NMS, 0.6 nmol PP-60.20, 0.6 Mm MnCl2, 2 μg Kod single-strand binding protein (SSB), 1 M urea, 50 pmol each XNTP, 0.5 pmol template, 0.5 pmol oligonucleotide primer, 1.2 μg purified recombinant C4760 DNA polymerase (a variant of DPO4, see SEQ ID NO:2), and 2 Mm PEM. 10 μL primer extension reactions were run for 30 minutes at 37° C. and reaction products were analyzed by gel electrophoresis."}, "[3]": {"test_system": "DNA polymerase", "test": "Screen of PEMs for enhancement of XNTP polymerization (primer extension reaction, gel electrophoresis)", "assay_type": "biochemical", "conditions": "for DNA polymerase-mediated primer extension with XNTPs (length of extension products): FIG. 4 gel, no PEM additive: up to only around 14 XNTPs", "source_text": "The Sequencing by Expansion (SBX) methodology developed by the inventors provides significant performance enhancements in sequence read efficiency and accuracy of Xpandomers relative to native DNA. However, initial transcription of the sequence of the natural DNA template onto the measurable Xpandomer relies on the ability of DNA polymerase to utilize XNTPs as substrates (the generalized structure of an XNTP is discussed herein with reference to FIG. 1A and FIG. 2). […] In an effort to improve the efficiency and accuracy of XNTP polymerization into Xpandomers, several PEMs were screened for the ability to enhance DNA polymerase primer extension reactions using XNTPs as substrates.\nA representative primer extension reaction may include the following reagents: 2 pmol primer, 2.2 pmol 45mer oligonucleotide template, 50 pmol of each XNTP (XATP, XCTP, XGTP, and XTTP), 50 Mm Tris HCl, Ph 6.79, 200 Mm NaCl, 20% PEG, 5% NMS, 0.5 nmol polyphosphate 60.19, 0.3 Mm MnCl2, and 0.6 μg of purified recombinant DNA polymerase protein. Reactions may be run for 1 hr at 23° C. Reaction products (i.e., constrained Xpandomers) are treated to cleave the phosphoramidate bonds, thereby generating linearized Xpandomers. Reaction products may be analyzed using gel electrophoresis on 4-12% acrylamide gels to resolve and visualize Xpandomer products of different lengths. For the PEM screen described above, PEMs were typically tested in the micro to millimolar range.\nAgain, this PEM activity is specific for compound 2, as other unrelated aromatic compounds had no effect (lanes 2-7)."}, "[4]": {"molecular_target": "T2, C4552 DNA polymerase (Saccharolobus solfataricus, UniProt Q97W02, A155G/A42V/D156R/D292Y/D294N/E291S/E324K/E325K/E327K/E79L/G187P/G299W/I153V/I189F/I248T/I295S/K152A/K317Q/K321Q/K56Y/K78D/L293W/M76W/N188Y/P184Q/Q82W/Q83G/R300S/S297Y/S86E/T290K/T301W/V289W/V296Q)", "T2 construct": "made in house", "T2 sequence (Q97W02 other isoform, or with tags, fused parts or gaps with the stated changes)": "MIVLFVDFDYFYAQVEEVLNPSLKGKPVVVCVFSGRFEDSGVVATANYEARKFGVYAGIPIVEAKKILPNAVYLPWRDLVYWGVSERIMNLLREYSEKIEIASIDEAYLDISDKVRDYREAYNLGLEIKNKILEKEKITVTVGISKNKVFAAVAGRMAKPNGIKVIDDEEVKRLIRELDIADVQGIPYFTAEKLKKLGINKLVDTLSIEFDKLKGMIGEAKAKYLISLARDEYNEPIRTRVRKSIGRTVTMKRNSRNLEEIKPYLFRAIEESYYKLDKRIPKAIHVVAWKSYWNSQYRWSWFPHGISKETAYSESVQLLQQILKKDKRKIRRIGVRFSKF", "test": "Primer extension assay with three 100mer templates derived from the HIV1, 2 and 3 genomes", "assay_type": "biochemical, Sulfolobus solfataricus", "conditions": "0.5 Mm PEM; HIV1, HIV2, HIV3 100mer templates; 30 minutes at 23° C.; FIG. 9", "protocol": "PEM activity of compounds 9-11 was tested in primer extension assays using three 100mer templates, derived from the HIV1, 2, and 3 genomes. Primer extension reactions included the following reagents: 75 Mm TrisCl, Ph 8.44, 175 Mm NH4Oac, 20% PEG8K, 5% NMS, 0.8 nmol PP-60.20, 0.6 Mm MnCl2, 2.3 μg Tth single-strand binding protein (SSB), 0.5 M or 1 M urea, 200 pmol each XNTP, 1.1 pmol template, 1 pmol oligonucleotide primer, 1.2 μg purified recombinant C4552 DNA polymerase, and 0.5 Mm PEM. 10 μL primer extension reactions were run for 30 minutes at 23° C. and reaction products were analyzed by gel electrophoresis."}}, "data": [{"smiles": "CCNC(=O)c1cc(-c2cn(-c3ccc(C(=O)O)c(O)c3)nn2)nc(-c2cn(-c3ccc(C(=O)O)c(O)c3)nn2)c1", "note": "[Compound 17, 4,4′-((4-(ethylcarbamoyl)pyridine-2,6-diyl)bis(1H-1,2,3-triazole-4,1-diyl))bis(2-hydroxybenzoic acid)]", "values": [{"measurement": "polymerization of XNTPs into lengthy Xpandomer copies (PEM activity)", "setting": "[1]", "value": "enable polymerization of XNTPs into lengthy Xpandomer copies of the 100mer template in a manner comparable to that of compound 14"}, {"measurement": "polymerization of XNTPs into lengthy Xpandomer copies, combination of PEMs", "setting": "[1]; combination of 2 Mm compound 14 and 0.1 Mm or 0.3 Mm compound 17, FIG. 13 lanes 7-9", "value": "also enabled polymerization of XNTPs into lengthy Xpandomer copies of the 100mer template"}, {"measurement": "PEM activity on an RNA template", "setting": "[2]", "value": "display PEM activity on an RNA template"}]}, {"smiles": "O=C(O)c1ccc(-n2cc(-c3ccc4[nH]c5ccc(-c6cn(-c7ccc(C(=O)O)c(O)c7)nn6)cc5c4c3)nn2)cc1O", "note": "[Compound 4, 4,4′-((9H-carbazole-3,6-diyl)bis(1H-1,2,3-triazole-4,1-diyl))bis(2-hydroxybenzoic acid)]", "values": [{"measurement": "DNA polymerase-mediated primer extension with XNTPs (length of extension products)", "setting": "[3]", "value": "considerably longer extension products"}]}, {"smiles": "O=C(O)c1ccc(-n2cc(-c3cccc(-c4cn(-c5ccc(C(=O)O)c(O)c5)nn4)c3)nn2)cc1O", "note": "[Compound 3, 4,4′-(1,3-phenylenebis(1H-1,2,3-triazole-4,1-diyl))bis(2-hydroxybenzoic acid)]", "values": [{"measurement": "DNA polymerase-mediated primer extension with XNTPs (length of extension products)", "setting": "[3]", "value": "considerably longer extension products"}]}, {"smiles": "O=C(O)c1ccc(-n2cc(-c3cc([N+](=O)[O-])cc(-c4cn(-c5ccc(C(=O)O)c(O)c5)nn4)n3)nn2)cc1O", "note": "[Compound 11, 4,4′-((4-nitropyridine-2,6-diyl)bis(1H-1,2,3-triazole-4,1-diyl))bis(2-hydroxybenzoic acid)]", "values": [{"measurement": "polymerization of XNTPs into full length Xpandomer copies (PEM activity)", "setting": "[4]", "value": "enable XNTP polymerization at least as efficiently as compound 1"}]}, {"smiles": "COc1cc(-c2cn(-c3ccc(C(=O)O)c(O)c3)nn2)nc(-c2cn(-c3ccc(C(=O)O)c(O)c3)nn2)c1", "note": "[Compound 9, 4,4′-((4-methoxypyridine-2,6-diyl)bis(1H-1,2,3-triazole-4,1-diyl))bis(2-hydroxybenzoic acid)]", "values": [{"measurement": "polymerization of XNTPs into full length Xpandomer copies (PEM activity)", "setting": "[4]", "value": "enable XNTP polymerization at least as efficiently as compound 1"}]}, {"smiles": "O=C(O)c1ccc(-n2cc(-c3cncc(-c4cn(-c5ccc(C(=O)O)c(O)c5)nn4)c3)nn2)cc1O", "note": "[Compound 2, 4,4′-(pyridine-3,5-diylbis(1H-1,2,3-triazole-4,1-diyl))bis(2-hydroxybenzoic acid)]", "values": [{"measurement": "primer extension activity with XNTPs", "setting": "[3]; FIG. 5 gel, compound at various concentrations (lanes 8-10)", "value": "significantly enhances primer extension activity"}]}, {"smiles": "COC(=O)c1cc(-c2cn(-c3ccc(C(=O)O)c(O)c3)nn2)nc(-c2cn(-c3ccc(C(=O)O)c(O)c3)nn2)c1", "note": "[Compound 16, 4,4′-((4-(methoxycarbonyl)pyridine-2,6-diyl)bis(1H-1,2,3-triazole-4,1-diyl))bis(2-hydroxybenzoic acid)]", "values": [{"measurement": "polymerization of XNTPs into lengthy Xpandomer copies (PEM activity)", "setting": "[1]", "value": "enable polymerization of XNTPs into lengthy Xpandomer copies of the 100mer template in a manner comparable to that of compound 14"}, {"measurement": "polymerization of XNTPs into full length copies, combination of PEMs", "setting": "[1]; combination of 2 Mm compound 16 and 0.1 Mm or 0.3 Mm compound 18, FIG. 13 lanes 10-12", "value": "enable polymerization of XNTPS into full length copies of the 100mer template"}]}]}
